Assay results as given in ChEMBL document CHEMBL4400571, “Essential structure of orexin 1 receptor antagonist YNT-707, part III: Role of the 14-hydroxy and the 3-methoxy groups in antagonistic activity toward the orexin 1 receptor in YNT-707 derivatives lacking the 4,5-epoxy ring” (Bioorg Med Chem, 2019).

Key:
Orexin receptor type 2 = target: T1, Orexin receptor type 2 (Homo sapiens, UniProt O43614); experiment: Antagonist activity at human OX2 receptor expressed in CHOK1 cells assessed as inhibition of orexin-A-induced calcium mobilization preincubated for 15 mins followed by orexin-A addition and measured by FURA 2-AM dye based fluorescence assay; format: functional, cell-based
T1 sequence (O43614 whole entry): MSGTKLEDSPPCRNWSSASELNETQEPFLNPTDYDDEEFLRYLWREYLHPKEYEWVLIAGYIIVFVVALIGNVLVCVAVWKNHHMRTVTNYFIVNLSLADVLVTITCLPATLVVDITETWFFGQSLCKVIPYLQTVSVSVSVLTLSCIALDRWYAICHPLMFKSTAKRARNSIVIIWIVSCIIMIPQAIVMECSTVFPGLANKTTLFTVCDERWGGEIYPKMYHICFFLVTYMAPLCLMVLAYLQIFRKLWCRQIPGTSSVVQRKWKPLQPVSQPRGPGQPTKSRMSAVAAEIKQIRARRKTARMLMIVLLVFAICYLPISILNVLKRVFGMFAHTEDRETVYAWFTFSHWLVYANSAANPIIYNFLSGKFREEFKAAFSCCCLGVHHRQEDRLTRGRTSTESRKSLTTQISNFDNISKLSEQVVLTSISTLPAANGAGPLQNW

[1] = target: T2, Orexin/Hypocretin receptor type 1 (Homo sapiens, UniProt O43613); experiment: Antagonist activity at human OX1 receptor expressed in CHOK1 cells assessed as inhibition of orexin-A-induced calcium mobilization preincubated for 15 mins followed by orexin-A addition and measured by FURA 2-AM dye based fluorescence assay; format: functional, cell-based
T2 sequence (O43613 whole entry): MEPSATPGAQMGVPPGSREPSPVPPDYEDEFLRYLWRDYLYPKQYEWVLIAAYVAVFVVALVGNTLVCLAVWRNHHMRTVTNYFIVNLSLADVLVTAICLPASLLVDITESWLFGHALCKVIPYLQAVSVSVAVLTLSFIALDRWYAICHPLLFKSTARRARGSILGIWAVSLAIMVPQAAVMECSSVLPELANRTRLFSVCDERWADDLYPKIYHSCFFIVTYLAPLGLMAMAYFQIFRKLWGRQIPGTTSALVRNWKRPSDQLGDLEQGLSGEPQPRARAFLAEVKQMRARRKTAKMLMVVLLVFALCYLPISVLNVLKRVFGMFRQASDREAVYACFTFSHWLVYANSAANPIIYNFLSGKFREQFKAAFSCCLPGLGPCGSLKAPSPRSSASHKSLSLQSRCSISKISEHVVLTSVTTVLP

| SMILES | Ki (Orexin receptor type 2) [µM] | Ki [1] [µM] |
| --- | --- | --- |
| COc1ccc2c(c1)[C@]13CCN(S(=O)(=O)c4ccccc4)[C@H](C2)[C@@H]1CC[C@@H](N(C)C(=O)/C=C/c1ccoc1)C3 | > 10 | 0.00551 |
| COc1ccc2c(c1)[C@]13CCN(S(=O)(=O)c4ccccc4)[C@H](C2)[C@]1(O)CC[C@@H](N(C)C(=O)/C=C/c1ccoc1)C3 | > 10 |  |
| COc1ccc2c(c1)[C@]13CCN(S(=O)(=O)c4ccccc4)[C@H](C2)[C@@H]1CC[C@H](N(C)C(=O)/C=C/c1ccoc1)C3 | 0.0799 | 0.00434 |
| CN(C(=O)/C=C/c1ccoc1)[C@H]1CC[C@@]2(O)[C@H]3Cc4ccccc4[C@@]2(CCN3S(=O)(=O)c2ccccc2)C1 | 0.173 | 0.00935 |
| COc1ccc2c3c1O[C@H]1[C@H](N(C)C(=O)/C=C/c4ccoc4)CC[C@@]4(O)[C@@H](C2)N(S(=O)(=O)c2ccccc2)CC[C@]314 | > 10 |  |
| CN(C(=O)/C=C/c1ccoc1)[C@@H]1CC[C@@]2(O)[C@H]3Cc4ccccc4[C@@]2(CCN3S(=O)(=O)c2ccccc2)C1 | > 10 | 0.461 |
| CN(C(=O)/C=C/c1ccoc1)[C@@H]1CC[C@@]2(O)[C@H]3CC4=C(CCCC4)[C@@]2(CCN3S(=O)(=O)c2ccccc2)C1 | > 10 | > 10 |
| CN(C(=O)/C=C/c1ccoc1)[C@H]1CC[C@@]2(O)[C@H]3CC4=C(CCCC4)[C@@]2(CCN3S(=O)(=O)c2ccccc2)C1 | 0.0919 | 0.00745 |
| COc1ccc2c(c1)[C@]13CCN(S(=O)(=O)c4ccccc4)[C@H](C2)C1=CC[C@@H](N(C)C(=O)/C=C/c1ccoc1)C3 | > 10 | 0.00589 |
| COc1ccc2c(c1)[C@]13CCN(S(=O)(=O)c4ccccc4)[C@H](C2)C1=CC[C@H](N(C)C(=O)/C=C/c1ccoc1)C3 | > 10 | 0.502 |
